Like-named read-outs stand apart in the source and are kept apart here.
What was measured:
Assay in all cases: NCI anticancer screen, SRB assay, 48 h
Format in all cases: cell-based, human
[1] = tested on: A549/ATCC (non-small cell lung)
In short: (§1)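 Compounds were tested across fifty three human cancer cell lines from nine tumour types. Each line got a dose-response curve of at least five concentrations at 10-fold dilutions, with continuous drug exposure and sulforhodamine B protein staining to estimate viability or growth.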

ACHN (renal) = tested on: ACHN (renal)
In short: as §1

CAKI-1 (renal) = conditions: for GI50: Homo sapiens
In short: as §1

COLO 205 (colon) = conditions: for GI50: COLO 205
In short: as §1

[2] = tested on: EKVX (non-small cell lung); conditions: for GI50: Homo sapiens
In short: as §1

HCT-116 (colon) = tested on: HCT-116 (colon)
In short: as §1

[3] = tested on: HOP-62 (non-small cell lung); conditions: for GI50: Homo sapiens
In short: as §1

HT29 (colon) = tested on: HT29 (colon)
In short: as §1

KM12 (colon) = tested on: KM12 (colon)
In short: as §1

M14 (melanoma) = tested on: M14 (melanoma)
In short: as §1

MALME-3M (melanoma) = tested on: MALME-3M (melanoma)
In short: as §1

[4] = tested on: NCI-H23 (non-small cell lung)
In short: as §1

[5] = tested on: NCI-H322M (non-small cell lung)
In short: as §1

[6] = tested on: NCI-H522 (non-small cell lung)
In short: as §1

NCI/ADR-RES (ovarian) = tested on: NCI/ADR-RES (ovarian)
In short: as §1

OVCAR-3 (ovarian) = tested on: OVCAR-3 (ovarian)
In short: as §1

OVCAR-4 (ovarian) = tested on: OVCAR-4 (ovarian)
In short: as §1

OVCAR-8 (ovarian) = tested on: OVCAR-8 (ovarian)
In short: as §1

[7] = tested on: RPMI-8226 (leukemia cell line)
In short: as §1

RXF 393 (renal) = tested on: RXF 393 (renal)
In short: as §1

SK-MEL-2 (melanoma) = tested on: SK-MEL-2 (melanoma)
In short: as §1

SK-MEL-28 (melanoma) = tested on: SK-MEL-28 (melanoma)
In short: as §1

SK-OV-3 (ovarian) = tested on: SK-OV-3 (ovarian)
In short: as §1

SNB-19 (CNS) = tested on: SNB-19 (CNS)
In short: as §1

SNB-75 (CNS) = conditions: for GI50: Homo sapiens
In short: as §1

TD-47D (breast) = tested on: TD-47D (breast)
In short: as §1

UACC-257 (melanoma) = tested on: UACC-257 (melanoma)
In short: as §1

UACC-62 (melanoma) = tested on: UACC-62 (melanoma)
In short: as §1

UO-31 (renal) = tested on: UO-31 (renal)
In short: as §1

[8] = tested on: NCI-H226 (non-small cell lung); conditions: Homo sapiens
In short: as §1

[9] = 48 h exposure, SRB, read-out: GI50
[10] = Homo sapiens, 48 h exposure, SRB, read-out: GI50
[11] = Homo sapiens, read-out: pGI50 (-log of molar concentration causing 50% inhibition of net cell growth) (converted)
[12] = read-out: pGI50 (-log of molar concentration causing 50% inhibition of net cell growth) (converted)

## COc1cc(/C=C/C(=O)c2cccc(-n3cc(-c4ccc(Cl)cc4)[nH]c3=O)c2)cc(OC)c1OC [5f, 4-(4-chlorophenyl)-1-3-[(E)-3-(3,4,5-trimethoxyphenyl)-2-propenoyl]phenyl-2,3-dihydro-1H-2-imidazolone]
[1]
  pGI50 (-log of molar concentration causing 50% inhibition of net cell growth): 4.07
[1]; [9]
  GI50: 85.2 µM
ACHN (renal)
  pGI50 (-log of molar concentration causing 50% inhibition of net cell growth): 5.14
ACHN (renal); [9]
  GI50: 7.17 µM
CAKI-1 (renal)
  pGI50 (-log of molar concentration causing 50% inhibition of net cell growth): 4.81
COLO 205 (colon); COLO205
  pGI50 (-log of molar concentration causing 50% inhibition of net cell growth): 5.13
COLO 205 (colon); [9]
  GI50: 7.38 µM
[2]
  pGI50 (-log of molar concentration causing 50% inhibition of net cell growth): 4.62
HCT-116 (colon)
  pGI50 (-log of molar concentration causing 50% inhibition of net cell growth): 5.86
HCT-116 (colon); [9]
  GI50: 1.39 µM
[3]
  pGI50 (-log of molar concentration causing 50% inhibition of net cell growth): 4.63
HT29 (colon)
  pGI50 (-log of molar concentration causing 50% inhibition of net cell growth): 5.70
HT29 (colon); [9]
  GI50: 2 µM
KM12 (colon)
  pGI50 (-log of molar concentration causing 50% inhibition of net cell growth): 5.26
KM12 (colon); [9]
  GI50: 5.45 µM
M14 (melanoma)
  pGI50 (-log of molar concentration causing 50% inhibition of net cell growth): 5.36
M14 (melanoma); [9]
  GI50: 4.36 µM
MALME-3M (melanoma); MALME-3M
  pGI50 (-log of molar concentration causing 50% inhibition of net cell growth): 4.74
MALME-3M (melanoma); MALME-3M, 48 h exposure, SRB, read-out: GI50
  GI50: 18.1 µM
[4]
  pGI50 (-log of molar concentration causing 50% inhibition of net cell growth): 5.45
[4]; [9]
  GI50: 3.56 µM
[5]
  pGI50 (-log of molar concentration causing 50% inhibition of net cell growth): 4.89
[5]; [9]
  GI50: 12.9 µM
[6]
  pGI50 (-log of molar concentration causing 50% inhibition of net cell growth): 5.39
[6]; [9]
  GI50: 4.1 µM
NCI/ADR-RES (ovarian); NCI/ADR-RES
  pGI50 (-log of molar concentration causing 50% inhibition of net cell growth): 5.63
NCI/ADR-RES (ovarian); NCl/ADR-RES, 48 h exposure, SRB, read-out: GI50
  GI50: 2.36 µM
OVCAR-3 (ovarian)
  pGI50 (-log of molar concentration causing 50% inhibition of net cell growth): 5.61
OVCAR-3 (ovarian); [9]
  GI50: 2.4 µM
OVCAR-4 (ovarian)
  pGI50 (-log of molar concentration causing 50% inhibition of net cell growth): 4.94
OVCAR-4 (ovarian); [9]
  GI50: 11.4 µM
OVCAR-8 (ovarian)
  pGI50 (-log of molar concentration causing 50% inhibition of net cell growth): 5.41
OVCAR-8 (ovarian); [9]
  GI50: 3.85 µM
[7]
  pGI50 (-log of molar concentration causing 50% inhibition of net cell growth): 5.41
[7]; [9]
  GI50: 3.92 µM
RXF 393 (renal); RXF 393, 48 h exposure, SRB, read-out: GI50
  GI50: 3.22 µM
RXF 393 (renal); RXF-393
  pGI50 (-log of molar concentration causing 50% inhibition of net cell growth): 5.49
SK-MEL-2 (melanoma)
  pGI50 (-log of molar concentration causing 50% inhibition of net cell growth): 5.46
SK-MEL-2 (melanoma); [9]
  GI50: 3.44 µM
SK-MEL-28 (melanoma)
  pGI50 (-log of molar concentration causing 50% inhibition of net cell growth): 4.96
SK-MEL-28 (melanoma); [9]
  GI50: 10.9 µM
SK-OV-3 (ovarian)
  pGI50 (-log of molar concentration causing 50% inhibition of net cell growth): 4.50
SK-OV-3 (ovarian); [9]
  GI50: 31.4 µM
SNB-19 (CNS)
  pGI50 (-log of molar concentration causing 50% inhibition of net cell growth): 4.79
SNB-19 (CNS); [9]
  GI50: 16.1 µM
SNB-75 (CNS)
  pGI50 (-log of molar concentration causing 50% inhibition of net cell growth): 4.69
TD-47D (breast)
  pGI50 (-log of molar concentration causing 50% inhibition of net cell growth): 5.18
TD-47D (breast); [9]
  GI50: 6.65 µM
UACC-257 (melanoma)
  pGI50 (-log of molar concentration causing 50% inhibition of net cell growth): 4.76
UACC-257 (melanoma); [9]
  GI50: 17.4 µM
UACC-62 (melanoma)
  pGI50 (-log of molar concentration causing 50% inhibition of net cell growth): 5.05
UACC-62 (melanoma); [9]
  GI50: 8.88 µM
UO-31 (renal)
  pGI50 (-log of molar concentration causing 50% inhibition of net cell growth): 5.15
UO-31 (renal); [9]
  GI50: 7.03 µM

## COc1cc(/C=C/C(=O)c2cccc(-n3cc(-c4cc(OC)c(OC)c(OC)c4)[nH]c3=O)c2)cc(OC)c1OC [5d, 4-(3,4,5-trimethoxyphenyl)-1-3-[(E)-3-(3,4,5-trimethoxyphenyl)-2-propenoyl]phenyl-2,3-dihydro-1H-2-imidazolone]
[1]; [10]
  GI50: 3.03 µM
[1]; [11]
  GI50: 3.02 µM
ACHN (renal); [10]
  GI50: 1.74 µM
ACHN (renal); [11]
  GI50: 1.74 µM
CAKI-1 (renal); [9]
  GI50: 2.89 µM
CAKI-1 (renal); [12]
  GI50: 2.88 µM
COLO 205 (colon); Homo sapiens, COLO205, read-out: pGI50 (-log of molar concentration causing 50% inhibition of net cell growth) (converted)
  GI50: 1.51 µM
COLO 205 (colon); [10]
  GI50: 1.52 µM
[2]; [9]
  GI50: 9.47 µM
[2]; [12]
  GI50: 9.55 µM
HCT-116 (colon); [10]
  GI50: 0.74 µM
HCT-116 (colon); [11]
  GI50: 0.741 µM
[3]; [9]
  GI50: 3.08 µM
[3]; [12]
  GI50: 3.09 µM
HT29 (colon); Homo sapiens, HT-29, 48 h exposure, SRB, read-out: GI50
  GI50: 1.7 µM
HT29 (colon); Homo sapiens, HT-29, read-out: pGI50 (-log of molar concentration causing 50% inhibition of net cell growth) (converted)
  GI50: 1.7 µM
KM12 (colon); [10]
  GI50: 1.12 µM
KM12 (colon); [11]
  GI50: 1.12 µM
M14 (melanoma); [10]
  GI50: 2.12 µM
M14 (melanoma); [11]
  GI50: 2.14 µM
MALME-3M (melanoma); Homo sapiens, Malme-3M, read-out: pGI50 (-log of molar concentration causing 50% inhibition of net cell growth) (converted)
  GI50: 1.82 µM
MALME-3M (melanoma); Homo sapiens, MALME-3M, 48 h exposure, SRB, read-out: GI50
  GI50: 1.8 µM
[8]; [9]
  GI50: 14.4 µM
[8]; [12]
  GI50: 14.5 µM
[4]; [10]
  GI50: 2 µM
[4]; [11]
  GI50: 2 µM
[5]; [10]
  GI50: 3.61 µM
[5]; [11]
  GI50: 3.63 µM
[6]; [10]
  GI50: 1.05 µM
[6]; [11]
  GI50: 1.05 µM
NCI/ADR-RES (ovarian); Homo sapiens, NCI/ADR-RES, NCl/ADR-RES, 48 h exposure, SRB, read-out: GI50
  GI50: 2.1 µM
NCI/ADR-RES (ovarian); Homo sapiens, NCI/ADR-RES, read-out: pGI50 (-log of molar concentration causing 50% inhibition of net cell growth) (converted)
  GI50: 2.09 µM
OVCAR-3 (ovarian); [10]
  GI50: 1.48 µM
OVCAR-3 (ovarian); [11]
  GI50: 1.48 µM
OVCAR-4 (ovarian); [10]
  GI50: 3.77 µM
OVCAR-4 (ovarian); [11]
  GI50: 3.8 µM
OVCAR-8 (ovarian); [10]
  GI50: 2.32 µM
OVCAR-8 (ovarian); [11]
  GI50: 2.34 µM
[7]; [10]
  GI50: 0.23 µM
[7]; [11]
  GI50: 0.229 µM
RXF 393 (renal); Homo sapiens, RXF 393, 48 h exposure, SRB, read-out: GI50
  GI50: 1.62 µM
RXF 393 (renal); Homo sapiens, RXF-393, read-out: pGI50 (-log of molar concentration causing 50% inhibition of net cell growth) (converted)
  GI50: 1.62 µM
SK-MEL-2 (melanoma); [10]
  GI50: 3.02 µM
SK-MEL-2 (melanoma); [11]
  GI50: 3.02 µM
SK-MEL-28 (melanoma); [10]
  GI50: 1.61 µM
SK-MEL-28 (melanoma); [11]
  GI50: 1.62 µM
SK-OV-3 (ovarian); [10]
  GI50: 5.12 µM
SK-OV-3 (ovarian); [11]
  GI50: 5.13 µM
SNB-19 (CNS); [10]
  GI50: 4.07 µM
SNB-19 (CNS); [11]
  GI50: 4.07 µM
SNB-75 (CNS); [9]
  GI50: 5.13 µM
SNB-75 (CNS); [12]
  GI50: 5.13 µM
TD-47D (breast); [10]
  GI50: 3.08 µM
TD-47D (breast); [11]
  GI50: 3.09 µM
UACC-257 (melanoma); [10]
  GI50: 2.22 µM
UACC-257 (melanoma); [11]
  GI50: 2.24 µM
UACC-62 (melanoma); [10]
  GI50: 1.87 µM
UACC-62 (melanoma); [11]
  GI50: 1.86 µM
UO-31 (renal); [10]
  GI50: 0.96 µM
UO-31 (renal); [11]
  GI50: 0.955 µM

From patent publication US8889874B2, “Imidazolone-chalcone derivatives as potential anticancer agent and process for the preparation thereof” (Council of Scientific and Industrial Research, priority 2010, dated 2014)
